Measurements as given in PMC9873282, “Design, synthesis and evaluation of quinoline-O-carbamate derivatives as multifunctional agents for the treatment of Alzheimer’s disease” (Journal of Enzyme Inhibition and Medicinal Chemistry, 2023).

Assays:
eeAChE = molecular target: T1, eeAChE (Electrophorus electricus, UniProt O42275); experiment: biochemical; set-up: species or system electric eel
T1 construct: eeAChE, from the electric eel; purchased Sigma Aldrich; host or cells: electric eel (natural source)
Description: (§1) The inhibitory activities of the synthesised compounds against eeAChE (from electric eel) and eqBuChE (from equine serum) were tested by the modified Ellman’s method[26]^,[27]. […] The determination of AChE and BuChE inhibitory potency of the synthesised compounds were evaluated by Ellman assay, the detailed procedure referred to our previous work[26]^,[27].

eqBuChE = molecular target: T2, eqBuChE (Equus caballus, UniProt P81908); experiment: biochemical; set-up: species or system equine
T2 construct: eqBuChE, from equine serum; purchased Sigma Aldrich; host or cells: equine serum (natural source)
Description: as §1

hAChE = molecular target: T3, hAChE (Homo sapiens, UniProt P22303); experiment: biochemical
T3 construct: hAChE, from human erythrocytes AChE; purchased Sigma Aldrich; host or cells: human erythrocytes (natural source)
Description: (§2) Acetylcholinesterase (eeAChE, from the electric eel; hAChE, from human erythrocytes AChE), butyrylcholinesterase (eqBuChE, from equine serum; hBuChE, human serum BuChE), 5,5′-dithiobis-2-nitrobenzoic acid (Ellman’s reagent, DTNB), acetylthiocholine chloride (ATC), and butyrylthiocholine chloride (BTC) were purchased form Sigma Aldrich. The determination of AChE and BuChE inhibitory potency of the synthesised compounds were evaluated by Ellman assay, the detailed procedure referred to our previous work[26]^,[27].

hBuChE = molecular target: T4, hBuChE (Homo sapiens, UniProt P06276); experiment: biochemical
T4 construct: hBuChE, human serum BuChE; purchased Sigma Aldrich; host or cells: human serum (natural source)
Description: as §2

BV-2 cells = experiment: Cytotoxicity on BV-2 cells (CCK8 assay); format: cell-based; conditions: compounds at 2 µM
Description: (§3) Firstly, the cytotoxicity of compounds 3a, 3c, 3e, 3f, 3k, 3m and 3n were tested using CCK8 assay.
BV-2 cells were cultured in DMEM containing 10% foetal bovine serum, 100 U/mL penicillin, 100 U/mL streptomycin, and 1% nonessential amino acid at 37 °C with 5% CO2.
BV-2 cells in logarithmic growth stage were digested and centrifuged, and then resuspended in DMEM medium containing 1% penicillin-streptomycin and 10% foetal bovine serum. The cells was adjusted to 1.2 × 10^4 cells/well, and then seeded evenly in 96-well cell culture plates. The cells were incubated for 36 h at 37 °C with 5% CO2. After incubation, the cells were added to different concentrations (10 and 2 µM) of tested compounds, and incubated for 24 h at 37 °C with 5% CO2. Then, 10 µL CCK-8 solution was added to each well, and incubated for another 1 h at 37 °C with 5% CO2. The OD values were tested at […]. The cell viability (%) = {(ODdrug−ODblank)}/{(ODcontrol−ODblank)} × 100%.

IL-6 = IL-6 production in LPS-stimulated BV-2 cells (ELISA); format: cell-based; conditions: 1 µM and 2 µM; 1 µg/mL LPS 24 h
Description: as §3
(§4) BV-2 cells (2 × 10^5 cells/well) were seeded in a 24-well cell culture plates. The cells were divided into blank control group, model group (1 µg/mL LPS), LPS + 2 µM compound group, LPS + 1 µM compound group. Each drug group was pre-treated with corresponding concentration of drug solution for 8 h. After 8 h, the culture medium was aspirated out. Except for the blank control group, which was added with DMEM medium, the other groups were stimulated with 1 µg/mL LPS for 24 h. Then cell supernatant was aspirated and centrifuged at 3000 rpm for 3 min. The content of NO in cell culture supernatant was determined by Griess method, and the levels of cytokines IL-6 and IL-1β in cell culture supernatant were determined by IL-6 ELISA kit and IL-1β ELISA kit, respectively.

IL-1β = IL-1β production in LPS-stimulated BV-2 cells (ELISA); format: cell-based; conditions: 1 µg/mL LPS 24 h
Description: as §3, §4

NO = NO release in LPS-stimulated BV-2 cells (Griess method); format: cell-based; conditions: 1 µg/mL LPS 24 h
Description: as §3, §4

PC12 cells = experiment: Cytotoxicity on PC12 cells; format: cell-based; conditions: at concentration below 40 µM
Description: (§5) The neuroprotective effect of compounds 3a, 3c, 3e, 3f, 3k, 3m, and 3n on Aβ25–35-induced PC12 cells injury were evaluated using CCK-8 assay. […] Furthermore, as shown in Figure 12(B), when PC12 cells were exposed to 25 µM Aβ25-35, the cell viability sharply declined to 57.3% (p < 0.01) compared with untreated group.
(§6) The PC12 cells during the logarithmic growth phase were digested and centrifuged with pancreatic enzyme solution, the cells were resuspended by adding the prepared media solution, and piped evenly with a pipette to seed in a 96-well cell culture plate (cell concentration adjusted to 2.0 × 10^4 cell·mL^−1). Each well was added 100 µL complete medium was added to each well and incubated at 37 °C and 5% CO2 for 24 h.

[1] = tested on: Aβ25-35-induced PC12 cells injury; experiment: Neuroprotective effect on Aβ25-35-induced PC12 cells injury (CCK-8); format: cell-based; conditions: 25 µM Aβ25-35; model cell viability 57.3%
Description: as §5
• Preparation of Aβ25-35 aggregation. Aβ25-35 was purchased from sigma. 1 mg Aβ25-35 was dissolved in 943 µL of sterilised deionised water to obtain 1 mM stock solution, aliquoted, –20 °C preservation. Removing the appropriate volume in a 48-well plate and incubated in a 37 °C incubator for two days to allow its ageing to accumulate and produce neurotoxicity. After aggregation was completed, the solution was diluted with PBS to get 25 µM solution of Aβ25-35 aggregation. • Neuroprotective effects of compounds on Aβ25-35-induced PC12 cells injury
as §6
After incubation for 24 h, PC12 cells were divided into blank group, control group, Aβ25-35 model group and tested compounds group (5, 10, 20 µM). Then the original medium was discarded, and 100 µL new complete medium were added to PC12 cells, and the tested compounds group was added to 100 µL complete medium containing different concentrations (5, 10, and 20 µM) of tested compounds, incubated for 2 h at 37 °C, 5% CO2 conditions. After incubation for 2 h, 10 µL Aβ25-35 solution was added to the tested compounds groups and model group (the final concentration of Aβ25-35 was 25 µM), and incubated for 24 h at 37 °C, 5% CO2 conditions, 10 µL CCK-8 was added to each well and further incubated for 1 h at 37 °C and 5% CO2. Finally, the OD value was measured at 450 nm using a microplate reader, and each concentration set three wells. The cell survival rate (%) was determined according to the following formula: cell viability (%) = {(ODdrug−ODblank)}/{(ODcontrol−ODblank)}.

T4 sequence (P06276 29-602): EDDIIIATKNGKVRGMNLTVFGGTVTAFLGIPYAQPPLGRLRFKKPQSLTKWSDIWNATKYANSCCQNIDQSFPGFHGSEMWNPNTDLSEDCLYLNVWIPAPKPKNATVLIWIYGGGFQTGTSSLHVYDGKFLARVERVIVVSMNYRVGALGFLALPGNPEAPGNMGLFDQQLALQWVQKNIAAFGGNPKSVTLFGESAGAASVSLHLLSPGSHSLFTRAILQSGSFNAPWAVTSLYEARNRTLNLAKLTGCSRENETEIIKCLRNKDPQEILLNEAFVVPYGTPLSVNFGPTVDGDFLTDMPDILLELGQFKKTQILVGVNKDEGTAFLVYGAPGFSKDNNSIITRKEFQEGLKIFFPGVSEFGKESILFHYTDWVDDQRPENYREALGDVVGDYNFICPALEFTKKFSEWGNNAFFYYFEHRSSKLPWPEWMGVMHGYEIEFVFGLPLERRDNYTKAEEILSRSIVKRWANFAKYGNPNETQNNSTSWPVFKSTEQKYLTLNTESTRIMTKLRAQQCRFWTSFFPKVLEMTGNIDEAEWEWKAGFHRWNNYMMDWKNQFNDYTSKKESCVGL
T2 sequence (P81908 whole entry): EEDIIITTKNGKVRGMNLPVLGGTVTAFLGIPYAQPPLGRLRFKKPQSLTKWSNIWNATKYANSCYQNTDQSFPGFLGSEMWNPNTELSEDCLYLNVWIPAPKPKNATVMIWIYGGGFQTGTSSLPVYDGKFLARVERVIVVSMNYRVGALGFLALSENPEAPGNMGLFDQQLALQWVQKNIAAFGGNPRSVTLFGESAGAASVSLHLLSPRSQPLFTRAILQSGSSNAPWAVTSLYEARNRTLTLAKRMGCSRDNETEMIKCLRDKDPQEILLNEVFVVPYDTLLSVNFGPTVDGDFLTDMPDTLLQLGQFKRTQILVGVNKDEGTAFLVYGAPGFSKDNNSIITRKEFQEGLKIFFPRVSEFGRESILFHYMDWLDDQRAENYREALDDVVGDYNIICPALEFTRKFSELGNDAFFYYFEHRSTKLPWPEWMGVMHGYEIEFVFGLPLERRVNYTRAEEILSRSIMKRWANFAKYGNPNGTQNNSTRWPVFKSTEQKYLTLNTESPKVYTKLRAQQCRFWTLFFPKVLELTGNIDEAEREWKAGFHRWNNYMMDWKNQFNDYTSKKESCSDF
T1 sequence (O42275 24-633): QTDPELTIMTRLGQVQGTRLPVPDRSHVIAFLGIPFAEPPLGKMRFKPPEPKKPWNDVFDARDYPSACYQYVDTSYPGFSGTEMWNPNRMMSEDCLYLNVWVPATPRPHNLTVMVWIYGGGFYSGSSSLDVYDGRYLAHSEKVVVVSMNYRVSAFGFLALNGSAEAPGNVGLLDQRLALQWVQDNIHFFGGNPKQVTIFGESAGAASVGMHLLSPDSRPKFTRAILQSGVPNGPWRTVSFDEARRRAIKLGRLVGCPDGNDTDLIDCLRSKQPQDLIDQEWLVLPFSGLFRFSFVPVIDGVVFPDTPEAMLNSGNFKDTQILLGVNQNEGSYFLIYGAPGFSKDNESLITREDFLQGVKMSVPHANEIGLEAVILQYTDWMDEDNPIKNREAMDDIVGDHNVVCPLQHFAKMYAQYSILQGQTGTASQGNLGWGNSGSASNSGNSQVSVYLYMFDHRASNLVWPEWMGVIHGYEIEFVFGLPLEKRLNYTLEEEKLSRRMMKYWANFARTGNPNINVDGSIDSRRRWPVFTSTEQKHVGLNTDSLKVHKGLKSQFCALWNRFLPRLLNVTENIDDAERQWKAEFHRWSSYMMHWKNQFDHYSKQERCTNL
T3 sequence (P22303 32-617 isoform P22303-2 limits assumed): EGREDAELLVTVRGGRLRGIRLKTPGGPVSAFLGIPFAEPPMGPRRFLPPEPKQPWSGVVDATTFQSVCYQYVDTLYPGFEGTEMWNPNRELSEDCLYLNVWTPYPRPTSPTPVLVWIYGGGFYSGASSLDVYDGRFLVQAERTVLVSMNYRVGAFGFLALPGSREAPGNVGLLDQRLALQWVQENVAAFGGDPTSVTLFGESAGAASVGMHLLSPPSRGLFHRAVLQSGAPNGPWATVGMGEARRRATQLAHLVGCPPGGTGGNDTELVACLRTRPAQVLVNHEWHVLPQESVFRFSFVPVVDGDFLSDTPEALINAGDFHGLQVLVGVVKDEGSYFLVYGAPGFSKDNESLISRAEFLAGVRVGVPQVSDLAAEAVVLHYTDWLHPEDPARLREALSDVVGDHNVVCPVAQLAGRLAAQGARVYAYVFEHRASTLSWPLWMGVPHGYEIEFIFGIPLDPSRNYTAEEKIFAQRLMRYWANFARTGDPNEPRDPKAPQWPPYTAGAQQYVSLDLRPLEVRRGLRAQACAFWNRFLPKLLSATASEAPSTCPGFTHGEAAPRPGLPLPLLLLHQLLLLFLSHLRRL

CN(C)C(=O)Oc1cccc2ncccc12 [Compound 3e, Quinolin-5-yl dimethylcarbamate]
IC50 (eeAChE): 4.5 ± 0.04 µM | IC50 (eqBuChE; IC50 ± SD eqBuChE, BuChE from equine serum): 0.94 ± 0.07 µM | SI = IC50 (AChE)/IC50 (BuChE) (eqBuChE; eeAChE/eqBuChE): 4.8 | IC50 (hAChE): 10.4 ± 0.21 µM | IC50 (hBuChE; IC50 ± SD hBuChE, from human serum): 3.7 ± 0.05 µM | SI = IC50 (AChE)/IC50 (BuChE) (hBuChE; hAChE/hBuChE): 2.8 | cell viability of BV-2 cells (BV-2 cells): did not show obvious change | levels of IL-6 compared with model group (IL-6): significantly decreased | levels of IL-1β compared with model group (IL-1β): significantly decreased | release volume of NO (NO): significantly decreased | cytotoxicity on PC12 cells (PC12 cells): did not show any cytotoxicity | neuroprotective effect on Aβ25-35-induced PC12 cells injury [1]: remarkable neuroprotective effects at 5 and 10 µM
